Data reported in PMC6414448, “Acaricidal Mechanism of Scopoletin Against Tetranychus cinnabarinus” (Frontiers in Physiology, 2019).

Biological target: T1, TcGPCR (G-protein-coupled neuropeptide receptor) (Tetranychus cinnabarinus, UniProt A0A2L1GE98)
T1 construct: full ORF in pcDNA3.1(+), transient expression in CHO-WTA11 cells with aequorin and Galpha16; seven TM helices, rhodopsin-like; T. urticae orthologue locus tetur02g03830
T1 sequence (A0A2L1GE98 1-513): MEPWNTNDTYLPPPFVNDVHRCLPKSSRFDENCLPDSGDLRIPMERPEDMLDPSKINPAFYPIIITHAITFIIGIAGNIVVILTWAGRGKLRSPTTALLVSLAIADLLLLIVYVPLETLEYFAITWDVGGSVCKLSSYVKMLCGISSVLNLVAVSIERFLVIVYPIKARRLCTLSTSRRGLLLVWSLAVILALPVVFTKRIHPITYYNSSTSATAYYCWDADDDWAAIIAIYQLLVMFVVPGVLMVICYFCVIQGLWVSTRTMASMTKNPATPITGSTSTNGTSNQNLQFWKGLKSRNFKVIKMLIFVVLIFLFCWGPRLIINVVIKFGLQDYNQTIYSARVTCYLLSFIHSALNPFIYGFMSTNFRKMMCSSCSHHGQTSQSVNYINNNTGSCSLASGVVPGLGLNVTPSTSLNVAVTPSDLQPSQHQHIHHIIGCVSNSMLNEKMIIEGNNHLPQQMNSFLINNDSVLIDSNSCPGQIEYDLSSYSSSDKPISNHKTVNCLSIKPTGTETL
Assay: aequorin luminescence calcium mobilization in transfected CHO-WTA11 cells
Assay type: cell-based
Text: aequorin luminescence calcium mobilization in transfected CHO-WTA11 cells on TcGPCR (G-protein-coupled neuropeptide receptor) | CHO cells expressing TcGPCR was induced by scopoletin in a concentration-dependent manner

COc1cc2ccc(=O)oc2cc1O [scopoletin]
EC50: 0.28 µM
